Assay results published in patent US8609689B2, “Pyridopyrazinones derivatives insulin secretion stimulators, methods for obtaining them and use thereof for the treatment of diabetes” (Merck Patent GmbH, priority 2008, dated 2013).

Legend:
INS-1 cells = test: Insulin secretion assay in INS-1 cells (glucose at 4.2 mM); type: cell-based, rat; conditions: 1 h incubation; for activity at 10 µM: Rattus norvegicus, INS1, glucose 4.2 mM, compound 10 μm, read-out: Insulin secretion, % of ctrl at 10 μm of cpd; for Insulin secretion, % of ctrl at 50 μm of cpd: glucose 4.2 mM, compound 50 μm
Protocol: INS-1 cells were cultured in complete medium, RPMI1640 containing 1 mM sodium pyruvate, 50 μM 2-mercaptoethanol, 2 mM glutamine, 10 mM HEPES, 100 IU/mL penicillin, and 100 μg/mL streptomycin (CM), supplemented with 10 mM glucose, and 10% (vol/vol) heat-inactivated fetal […] (FCS), as described by Asfari et al. (Endocrinology 130: 167-178, 1992).
INS-1 cells were plated and cultured in 48-well plates. After 2 days of culture, the medium was removed and cells were cultured for 24 h with a medium change to 5 mM glucose, 1% FCS. The cells were then washed with Krebs-Ringer Bicarbonate HEPES buffer (KRBH; 135 mM NaCl; 3.6 mM KCl; 5 mM NaHCO3; 0.5 mM NaH2PO4; 0.5 mM MgCl2; 1.5 mM CaCl2 and 10 mM HEPES; pH 7.4) 0.1% BSA containing 2.8 mM glucose and preincubated for 30 min at 37° C. in the same buffer. The cells were then washed twice and incubated for 1 h in KRBH 0.1% BSA containing 4.2 mM glucose and different concentrations of the tested molecule. Insulin concentration in the collected supernatants was measured with ELISA using rat insulin antibody (Insulin Rat Elit PLUS, cat, ref 10-1145-01).
Insulin secretion results are expressed in % of control (glucose 4.2 mM).

[1] = system: diabetic N0STZ rat islets; test: Insulin secretion in diabetic N0STZ rat islets; type: cell-based; conditions: 90 min, Means±SEM
Protocol: 14±3 weeks non-fasted N0STZ (PORTHA et al., 1974) male rats (Charles Rivers-Domaine des Oncins, I'Arbresle, France) were anesthetized with sodium pentobarbital (Nembutal®: 45 mg/kg in 5 ml/kg administered intra peritoneally) and body temperature was maintained with a heat lamp.
Rat pancreatic islets of Langerhans were isolated from the pancreas of 8 rats by collagenase P (Boehringer, Meylan, France) digestion. Islets were purified by sedimentation in Hanks balanced salt solution [NaCl (137 mM); KCl (5.36 mM); MgSO4, 7 H2O (0.81 mM); Na2HPO4, 12 H2O (0.34 mM); KH2PO4 (0.44 mM); CaCl2, 2 H2O (1.26 mM); NaHCO3 (4.17 mM)] followed by Ficoll gradient separation. Islets were then hand-picked under stereoscopic microscope and batches of 3 islets were incubated for 90 minutes at 37° C. with continuous shaking under a humidified condition ([…], 5% CO2) in 1 ml of Krebs/Hepes pH 7 solution [NaCl (115 mM), NaHCO3 (24 mM), KCl (5 mM), MgCl2 (1 mM), CaCl2, 2 H2O (1 mM), 0.2% of Bovine serum albumin (Fraction V, fatty acid free, Boehringer, Mannheim), 10 mM Hepes] containing the required glucose or compound concentration. Compounds were dissolved in DMSO at 2.10-2M stock solutions. They were then diluted at the required concentration in Krebs/Hepes buffer containing the required glucose concentration.
At the end of incubation, media was collected and insulin levels were measured using ELISA (EUROBIO, Courtaboeuf, France).
Islets were hand-picked and incubated in the presence of increasing concentrations of compounds in the presence of glucose at 2.8 or 8 mM. At the end of incubation, media was collected and insulin levels were measured using ELISA method. Results are expressed as % of glucose control (2.8 or 8 mM) and represent Means±SEM.

[2] = glucose 2.8 mM, compound 10−4 M

Compound | activity at 10 µM (INS-1 cells) [%] | Insulin secretion, % of ctrl at 50 μm of cpd (INS-1 cells) | also measured
O=c1c(-c2ccc(Cl)cc2)nc2cccnc2n1CC1CC1 [Example 3, 2-(4-chlorophenyl)-4-cyclopropylmethylpyrido[2,3-b]pyrazin-3(4H)-one] | 241 | 398 % of ctrl | Insulin secretion, % of glucose control [1, 2]: 85 ± 8 % of glucose control; Insulin secretion, % of glucose control ([1]; glucose 8 mM, compound 10−4 M): 168 ± 7 % of glucose control; Insulin secretion, % of glucose control ([1]; glucose 8 mM, compound 10−5 M): 145 ± 9 % of glucose control; Insulin secretion, % of glucose control ([1]; glucose 8 mM, compound 10−6 M): 110 ± 7 % of glucose control; Insulin secretion, % of glucose control ([1]; glucose 8 mM, compound 10−7 M): 100 ± 7 % of glucose control
CCn1c(=O)c(-c2ccc(Cl)cc2)nc2cccnc21 [Example 3-2, 2-(4-chlorophenyl)-4-ethylpyrido[2,3-b]pyrazin-3(4H)-one] | 240 | 263 % of ctrl | –
CCn1c(=O)c(-c2ccc(F)cc2)nc2cccnc21 [Example 3-3, 2-(4-fluorophenyl)-4-ethylpyrido[2,3-b]pyrazin-3(4H)-one] | 235 | 251 % of ctrl | –
CCn1c(=O)c(-c2ccccc2)nc2cccnc21 [Example 3-4, 4-ethyl-2-phenylpyrido[2,3-b]pyrazin-3(4H)-one] | 226 | 302 % of ctrl | –
O=c1c(-c2ccc(Cl)cc2)nc2cccnc2n1C1CC1 [Example 3-5, 2-(4-chlorophenyl)-4-cyclopropylpyrido[2,3-b]pyrazin-3(4H)-one] | 418 | 610 % of ctrl | –
O=c1c(-c2ccc(F)cc2)nc2cccnc2n1C1CC1 [Example 3-6, 4-cyclopropyl-2-(4-fluorophenyl)pyrido[2,3-b]pyrazin-3(4H)-one] | 231 | 255 % of ctrl | –
O=c1c(-c2ccc(F)cc2)nc2cccnc2n1CC1CC1 [Example 3-7, 4-cyclopropylmethyl-2-(4-fluorophenyl)pyrido[2,3-b]pyrazin-3(4H)-one] | 208 | 221 % of ctrl | Insulin secretion, % of glucose control [1, 2]: 84 ± 10 % of glucose control; Insulin secretion, % of glucose control ([1]; glucose 8 mM, compound 10−4 M): 228 ± 12 % of glucose control; Insulin secretion, % of glucose control ([1]; glucose 8 mM, compound 10−5 M): 210 ± 9 % of glucose control; Insulin secretion, % of glucose control ([1]; glucose 8 mM, compound 10−6 M): 149 ± 9 % of glucose control; Insulin secretion, % of glucose control ([1]; glucose 8 mM, compound 10−7 M): 124 ± 7 % of glucose control
O=c1c(-c2ccc(Cl)cc2)nc2cccnc2n1CC(F)F [Example 3-8, 2-(4-chlorophenyl)-4-(2,2-difluoroethyl)pyrido[2,3-b]pyrazin-3(4H)-one] | 273 | – | –
Cc1ccnc2c1nc(-c1ccc(Cl)cc1)c(=O)n2C1CC1 [Example 3-13, 2-(4-chlorophenyl)-4-cyclopropyl-8-methylpyrido[2,3-b]pyrazin-3(4H)-one] | – | – | melting point: 159 to 163 °C
COCCn1c(=O)c(-c2ccc(F)cc2)nc2cccnc21 [Example 3-16, 2-(4-fluorophenyl)-4-(2-methoxyethyl)pyrido[2,3-b]pyrazin-3(4H)-one] | 254 | – | melting point: 124 to 127 °C
CC(C)n1c(=O)c(-c2ccc(Cl)cc2)nc2cccnc21 [Example 3-18, 2-(4-chlorophenyl)-4-isopropyl-pyrido[2,3-b]pyrazin-3(4H)-one] | 338 | – | –
Cc1cc(F)ccc1-c1nc2cccnc2n(C2CC2)c1=O [Example 6-2, 4-cyclopropyl-2-(4-fluoro-2-methylphenyl)pyrido[2,3-b]pyrazin-3(4H)-one] | – | – | melting point: 165 to 167 °C
